Measured values reported in US8871929B2, “Fused-imidazoyl compounds useful as antimicrobial agents” (Merck Sharp & Dohme Corp., priority 2010, dated 2014).
Values after ≈ are worked out from the molar mass of the structure shown.

system: Staphylococcus aureus ATCC29213; assay: Susceptibility testing (MIC determination), broth microdilution; type: cell-based; conditions: Mueller Hinton broth, 96-well plate, overnight incubation at 35° C., read-out: MIC Staph. aureus ATCC-29213
Protocol: Compounds useful in the method of the invention were investigated for their utility as antimicrobial agents in the following assay. Susceptibility testing (MIC determinations) was performed using the standard broth microdilution methodology precisely as described in the Clinical Laboratory Standards Institute Document M7-A6; Methods for Dilution Antimicrobial Susceptibility Tests for Bacteria That Grow Aerobically; […] To perform the test, a series of 0.1 ml media in a 96-well plate is prepared with Mueller Hinton broth to which various concentrations of the test compound are added. The media are then inoculated with a standardized suspension of the test organism, Staphylococcus aureus ATCC29213. After overnight incubation at 35° C., the tests are examined and the minimal inhibitory concentration (MIC) is determined. MIC is defined as the lowest concentration of an antimicrobial agent that prevents visible growth of a microorganism in the broth microdilution susceptibility test

| Compound | MIC [µg/mL] |
| --- | --- |
| Cc1cccc2nc(-c3ccc(N4CCOCC4)cc3)c(NCC(=O)N3CCN(c4c(Cl)cncc4Cl)CC3)n12 [Compound 76] | 0.03 (≈ 0.0517 µM) |
| Cc1cccc2nc(-c3ccc(N4CCOCC4)nc3)c(NCC(=O)N3CCN(c4c(Cl)cncc4Cl)CC3)n12 [Compound 5] | 0.25 (≈ 0.43 µM) |
| CSc1ccccc1N1CCN(C(=O)CNc2c(-c3ccc(N4CCCC4)cc3)nc3cnccn23)CC1 [Compound 49] | 5 (≈ 9.48 µM) |
| CCN1CCCc2cc(-c3nc4cnccn4c3NCC(=O)N3CCN(c4c(Cl)cncc4Cl)CC3)ccc21 [Compound 11] | 0.5 (≈ 0.884 µM) |
| O=C(CNc1c(-c2ccc(N3CCOCC3)cc2)nc2ccc(Cl)cn12)N1CCN(c2c(Cl)cncc2Cl)CC1 [Compound 81] | 0.25 (≈ 0.416 µM) |
| Cc1cccc(C)c1N1CCN(C(=O)CNc2c(-c3ccc(N(C)C)cc3)nc3ccccn23)CC1 [Compound 56] | 2 (≈ 4.14 µM) |
| CN(C)c1ccc(-c2nc3cnccn3c2NCC(=O)N2CCN(c3c(Cl)cccc3Cl)CC2)cc1 [Compound 61] | 0.25 (≈ 0.477 µM) |
| CCc1ccc(-c2nc3cnccn3c2NCC(=O)N2CCN(c3c(Cl)cccc3Cl)CC2)s1 [Compound 18] | 3 (≈ 5.82 µM) |
| Cc1cccc(N2CCN(C(=O)CNc3c(-c4ccc(N5CCCC5)cc4)nc4ccccn34)CC2)c1C [Compound 29] | 5 (≈ 9.83 µM) |
| Cc1ccc2nc(-c3ccc(N4CCOCC4)cc3)c(NCC(=O)N3CCN(c4c(Cl)cncc4Cl)CC3)n2c1 [Compound 78] | 0.125 (≈ 0.215 µM) |
| Cc1ccc(Cl)cc1N1CCN(C(=O)CNc2c(-c3ccc(N(C)C)cc3)nc3cnccn23)CC1 [Compound 60] | 8 (≈ 15.9 µM) |
| CN(C)c1ccc(-c2nc3ccccn3c2NCC(=O)N2CCN(c3ccccc3Cl)CC2)cc1 [Compound 31] | 5 (≈ 10.2 µM) |
| Cc1ccn2c(NCC(=O)N3CCN(c4c(Cl)cncc4Cl)CC3)c(-c3ccc(N4CCOCC4)cc3)nc2c1 [Compound 74] | 0.06 (≈ 0.103 µM) |
| Cc1cccc(C)c1N1CCN(C(=O)CNc2c(-c3ccc(N4CCCC4)cc3)nc3ccccn23)CC1 [Compound 37] | 0.5 (≈ 0.983 µM) |
| O=C(CNc1c(-c2ccc(N3CCCC3)cc2)nc2ccccn12)N1CCC(c2cccc3ccccc23)CC1 [Compound 44] | 4 (≈ 7.55 µM) |
| CN(C)c1ccc(-c2nc3cnccn3c2NCC(=O)N2CCN(c3ccccc3C#N)CC2)cc1 [Compound 58] | 6 (≈ 12.5 µM) |
| CCc1ccc(-c2nc3cnccn3c2NCC(=O)N2CCN(c3c(Cl)cccc3Cl)CC2)o1 [Compound 23] | 8 (≈ 16 µM) |
| O=C(CNc1c(-c2ccc(N3CCCC3)cc2)nc2ccccn12)N1CCN(c2c(Cl)cccc2Cl)CC1 [Compound 41] | 0.313 (≈ 0.57 µM) |
| CC(C)N1CCCc2cc(-c3nc4cnccn4c3NCC(=O)N3CCN(c4ccccc4C#N)CC3)ccc21 [Compound 24] | 8 (≈ 15 µM) |
| O=C(CNc1c(-c2ccc(N3CCOCC3)cc2)nc2ccccn12)N1CCN(c2c(Cl)cncc2Cl)CC1 [Compound 73] | 0.09 (≈ 0.159 µM) |
| CCc1ccc(-c2nc3cnccn3c2NCC(=O)N2CCN(c3c(Cl)cncc3Cl)CC2)s1 [Compound 16] | 2 (≈ 3.87 µM) |
| O=C(CNc1c(-c2ccc(N3CCCC3)cc2)nc2cnccn12)N1CCC(c2cccc3ccccc23)CC1 [Compound 52] | 5 (≈ 9.42 µM) |
| CC(C)N1CCCc2cc(-c3nc4cnccn4c3NCC(=O)N3CCN(c4c(Cl)cncc4Cl)CC3)ccc21 [Compound 14] | 1 (≈ 1.73 µM) |

| Compound | MIC [µg/mL] |
| --- | --- |
| O=C(CNc1c(-c2ccc(N3CCOCC3)cc2)nc2cccc(C(F)(F)F)n12)N1CCN(c2c(Cl)cncc2Cl)CC1 [Compound 80] | 0.25 (≈ 0.394 µM) |
| O=C(CNc1c(-c2ccc(N3CCCCC3)nc2)nc2cnccn12)N1CCN(c2c(Cl)cncc2Cl)CC1 [Compound 8] | 0.44 (≈ 0.777 µM) |
| O=C(CNc1c(-c2cnc(N3CCCCC3)nc2)nc2cnccn12)N1CCN(c2c(Cl)cncc2Cl)CC1 [Compound 21] | 4 (≈ 7.05 µM) |
| COC(=O)c1ccn2c(NCC(=O)N3CCN(c4c(Cl)cncc4Cl)CC3)c(-c3ccc(N4CCOCC4)cc3)nc2c1 [Compound 84] | 0.125 (≈ 0.2 µM) |
| N#Cc1ccccc1N1CCN(C(=O)CNc2c(-c3ccc(N4CCCC4)cc3)nc3ccccn23)CC1 [Compound 35] | 0.313 (≈ 0.619 µM) |
| CCN1CCc2cc(-c3nc4cnccn4c3NCC(=O)N3CCN(c4c(Cl)cncc4Cl)CC3)ccc21 [Compound 33] | 0.19 (≈ 0.345 µM) |
| CCN1CCc2cc(-c3nc4cnccn4c3NCC(=O)N3CCN(c4ccccc4C#N)CC3)ccc21 [Compound 19] | 4 (≈ 7.9 µM) |
| N#Cc1cccnc1N1CCN(C(=O)CNc2c(-c3ccc(N4CCCC4)cc3)nc3ccccn23)CC1 [Compound 36] | 0.625 (≈ 1.23 µM) |
| N#Cc1ccccc1N1CCN(C(=O)CNc2c(-c3ccc(N4CCCC4)cc3)nc3cnccn23)CC1 [Compound 46] | 0.313 (≈ 0.618 µM) |
| O=C(CNc1c(-c2ccc(N3CCOCC3)cc2)nc2ccc(C(F)(F)F)cn12)N1CCN(c2c(Cl)cncc2Cl)CC1 [Compound 77] | 0.06 (≈ 0.0946 µM) |
| CN(C)c1ccc(-c2nc3cnccn3c2NCC(=O)N2CCN(c3ncccc3C#N)CC2)cc1 [Compound 59] | 6 (≈ 12.5 µM) |
| CN(C)c1ccc(-c2nc3cnccn3c2NCC(=O)N2CCC(c3cccc4ccccc34)CC2)cc1 [Compound 62] | 8 (≈ 15.9 µM) |
| O=C(CNc1c(-c2ccc(N3CCOCC3)cc2)nc2cccc(Cl)n12)N1CCN(c2c(Cl)cncc2Cl)CC1 [Compound 79] | 0.06 (≈ 0.0998 µM) |
| O=C(CNc1c(-c2ccc(N3CCOCC3)nc2)nc2cccc(Cl)n12)N1CCN(c2c(Cl)cncc2Cl)CC1 [Compound 1] | 0.06 (≈ 0.0997 µM) |
| CC(C)c1ccc(-c2nc3cnccn3c2NCC(=O)N2CCN(c3ccccc3C#N)CC2)cc1 [Compound 66] | 8 (≈ 16.7 µM) |
| Cn1ccc2cc(-c3nc4cnccn4c3NCC(=O)N3CCN(c4c(Cl)cncc4Cl)CC3)ccc21 [Compound 22] | 8 (≈ 14.9 µM) |
| Cc1ccc(Cl)cc1N1CCN(C(=O)CNc2c(-c3ccc(N4CCCC4)cc3)nc3ccccn23)CC1 [Compound 40] | 1 (≈ 1.89 µM) |
| CN(C)c1ccc(-c2nc3ccccn3c2NCC(=O)N2CCN(c3ncccc3C#N)CC2)cc1 [Compound 55] | 6 (≈ 12.5 µM) |
| O=C(CNc1c(-c2ccc(N3CCOCC3)cc2)nc2cc(C(F)(F)F)ccn12)N1CCN(c2c(Cl)cncc2Cl)CC1 [Compound 82] | 0.125 (≈ 0.197 µM) |
| CC(C)N1CCc2cc(-c3nc4cnccn4c3NCC(=O)N3CCN(c4c(Cl)cncc4Cl)CC3)ccc21 [Compound 15] | 1 (≈ 1.77 µM) |
| CN1CCCc2cc(-c3nc4cnccn4c3NCC(=O)N3CCN(c4c(Cl)cncc4Cl)CC3)ccc21 [Compound 13] | 0.96 (≈ 1.74 µM) |
| CN1CCOc2cc(-c3nc4cnccn4c3NCC(=O)N3CCN(c4c(Cl)cncc4Cl)CC3)ccc21 [Compound 10] | 0.5 (≈ 0.903 µM) |
| CC(C)c1ccc(-c2nc3cnccn3c2NCC(=O)N2CCN(c3ncccc3C#N)CC2)cc1 [Compound 67] | 4 (≈ 8.32 µM) |

| Compound | MIC [µg/mL] |
| --- | --- |
| O=C(CNc1c(-c2ccc(N3CCCC3)cc2)nc2ccccn12)N1CCN(c2c(Cl)cncc2Cl)CC1 [Compound 27] | 0.06 (≈ 0.109 µM) |
| O=C(CNc1c(-c2ccc(N3CCCC3)nc2)nc2cnccn12)N1CCN(c2c(Cl)cncc2Cl)CC1 [Compound 9] | 0.46 (≈ 0.833 µM) |
| O=C(CNc1c(-c2ccc(N3CCCC3)cc2)nc2ccccn12)N1CCN(c2ccccc2Cl)CC1 [Compound 30] | 5 (≈ 9.71 µM) |
| O=C(CNc1c(-c2ccc(N3CCCC3)cc2)nc2cnccn12)N1CCN(c2ccncc2Cl)CC1 [Compound 51] | 5 (≈ 9.67 µM) |
| CCCN1CCc2cc(-c3nc4cnccn4c3NCC(=O)N3CCN(c4c(Cl)cncc4Cl)CC3)ccc21 [Compound 17] | 2 (≈ 3.54 µM) |
| CN(C)c1ccc(-c2nc3cnccn3c2NCC(=O)N2CCN(c3c(Cl)cncc3Cl)CC2)cn1 [Compound 12] | 0.5 (≈ 0.95 µM) |
| CN(C)c1ccc(-c2nc3ccccn3c2NCC(=O)N2CCN(c3c(Cl)cccc3Cl)CC2)cc1 [Compound 57] | 0.25 (≈ 0.478 µM) |
| Cc1ccccc1N1CCN(C(=O)CNc2c(-c3ccc(N4CCCC4)cc3)nc3ccccn23)CC1 [Compound 34] | 5 (≈ 10.1 µM) |
| Cc1ccc(Cl)cc1N1CCN(C(=O)CNc2c(-c3ccc(N4CCCC4)cc3)nc3cnccn23)CC1 [Compound 50] | 2.5 (≈ 4.72 µM) |
| O=C(CNc1c(-c2ccc(N3CCCC3)cc2)nc2ccccn12)N1CCN(c2ccncc2Cl)CC1 [Compound 42] | 2.5 (≈ 4.84 µM) |
| O=C(CNc1c(-c2ccc(N3CCOCC3)nc2)nc2cnccn12)N1CCN(c2c(Cl)cncc2Cl)CC1 [Compound 7] | 0.4 (≈ 0.704 µM) |
| CN(C)c1ccc(-c2nc3ccccn3c2NCC(=O)N2CCN(c3c(Cl)cncc3Cl)CC2)cc1 [Compound 28] | 0.31 (≈ 0.591 µM) |
| CSc1ccccc1N1CCN(C(=O)CNc2c(-c3ccc(N4CCCC4)cc3)nc3ccccn23)CC1 [Compound 39] | 1 (≈ 1.9 µM) |
| CCN1CCc2cc(-c3nc4ccccn4c3NCC(=O)N3CCN(c4c(Cl)cncc4Cl)CC3)ccc21 [Compound 2] | 0.125 (≈ 0.227 µM) |
| CCCN1CCCc2cc(-c3nc4cnccn4c3NCC(=O)N3CCN(c4c(Cl)cncc4Cl)CC3)ccc21 [Compound 25] | 8 (≈ 13.8 µM) |
| N#Cc1cccnc1N1CCN(C(=O)CNc2c(-c3ccc(N4CCCC4)cc3)nc3cnccn23)CC1 [Compound 47] | 0.625 (≈ 1.23 µM) |
| Cc1ccccc1C1CCN(C(=O)CNc2c(-c3ccc(N4CCCC4)cc3)nc3ccccn23)CC1 [Compound 43] | 8 (≈ 16.2 µM) |
| O=C(CNc1c(-c2ccc(N3CCSCC3)nc2)nc2cnccn12)N1CCN(c2c(Cl)cncc2Cl)CC1 [Compound 3] | 0.125 (≈ 0.214 µM) |
| CCN1CCc2cc(-c3nc4cnccn4c3NCC(=O)N3CCN(c4ncccc4C#N)CC3)ccc21 [Compound 26] | 8 (≈ 15.8 µM) |
| O=C(CNc1c(-c2ccc(N3CCOCC3)cc2)nc2ccc(F)cn12)N1CCN(c2c(Cl)cncc2Cl)CC1 [Compound 83] | 0.125 (≈ 0.214 µM) |
| CC(C)c1ccc(-c2nc3cnccn3c2NCC(=O)N2CCN(c3c(Cl)cccc3Cl)CC2)cc1 [Compound 65] | 1 (≈ 1.91 µM) |
| Cc1ccc2nc(-c3ccc(N4CCOCC4)nc3)c(NCC(=O)N3CCN(c4c(Cl)cncc4Cl)CC3)n2c1 [Compound 6] | 0.25 (≈ 0.43 µM) |
| O=C(CNc1c(-c2ccc(N3CCCC3)cc2)nc2cnccn12)N1CCN(c2ccccc2C(F)(F)F)CC1 [Compound 72] | 8 (≈ 14.6 µM) |
